In patent publication US8822503B2, “2-pyridone compounds” (Taisho Pharmaceutical Co., Ltd, priority 2009, dated 2014):

Molecular target: T1, human liver GK (Homo sapiens, UniProt P35557)
T1 construct: GST (glutathione S-transferase) (N); made in house; host or cells: E. coli
T1 sequence (P35557 1-466 isoform P35557-2): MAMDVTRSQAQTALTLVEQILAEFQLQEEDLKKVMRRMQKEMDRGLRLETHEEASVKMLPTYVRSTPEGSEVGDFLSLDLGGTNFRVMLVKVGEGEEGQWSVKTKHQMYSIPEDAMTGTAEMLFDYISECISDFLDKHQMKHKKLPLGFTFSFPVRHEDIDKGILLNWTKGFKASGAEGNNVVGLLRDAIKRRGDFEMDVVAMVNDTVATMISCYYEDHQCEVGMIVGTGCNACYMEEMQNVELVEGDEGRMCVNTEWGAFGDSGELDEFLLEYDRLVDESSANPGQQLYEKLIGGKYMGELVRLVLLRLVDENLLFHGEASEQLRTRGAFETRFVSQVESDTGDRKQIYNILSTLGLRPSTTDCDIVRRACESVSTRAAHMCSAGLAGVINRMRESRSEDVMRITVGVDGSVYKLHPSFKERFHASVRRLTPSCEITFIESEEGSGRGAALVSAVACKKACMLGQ
Assay: GK activation test
Assay type: biochemical
Settings: test compound concentration needed to activate 50% of maximum activation ability; 4 mM 14C-labeled glucose, 2 mM ATP, room temperature, 20 minutes
How it was run: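 GST-tagged human liver GK from E. coli (0.24 μg/well) with 4 mM 14C-glucose, 2 mM ATP in Hepes-KOH pH 7.1, KCl, MgCl2, DTT, 1% DMSO, 20 min room temperature. Labeled glucose 6-phosphate captured on anion resin, eluted and counted. EC50 = concentration giving half of maximal activation.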

Row | EC50 | SMILES
1 | 0.5 to 3 µM | O=C1CC[C@H](/C=C(\c2ccc(C(F)(F)F)cc2)c2ccc(OC3CCCC3)c(=O)[nH]2)N1 [Example 4-168, 3-(Cyclopentyloxy)-6-{(E)-2-[(2R)-5-oxopyrrolidin-2-yl]-1-[4-(trifluoromethyl)phenyl]ethenyl}pyridin-2(1H)-one]
2 | 0.5 to 3 µM | CN1CCOc2cc(/C(=C\[C@H]3CCC(=O)N3)c3ccc(Cl)c(=O)[nH]3)ccc21 [Example 4-79, 3-Chloro-6-{(E)-1-(4-methyl-3,4-dihydro-2H-1,4-benzoxazin-7-yl)-2-[(2R)-5-oxopyrrolidin-2-yl]ethenyl}pyridin-2(1H)-one]
3 | 0.5 to 3 µM | Cc1ccc(/C(=C/C2CCCC2)c2ccc(S(C)(=O)=O)nc2)[nH]c1=O [Example 1-35, 6-{(E)-2-Cyclopentyl-1-[6-(methylsulfonyl)pyridin-3-yl]ethenyl}-3-methylpyridin-2(1H)-one]
4 | 0.01 to 0.5 µM | CCc1ccc(/C(=C/C2CCCC2)c2ccc(SCCCN(CC)CC)c(Cl)c2)[nH]c1=O [Example 1-26, 6-[(E)-1-(3-Chloro-4-{[3-(diethylamino)propyl]sulfanyl}phenyl)-2-cyclopentylethenyl]-3-ethylpyridin-2(1H)-one]
5 | 0.01 to 0.5 µM | CCN(CC)CCCSc1ccc(/C(=C\C2CCCC2)c2ccc(C)c(=O)[nH]2)cc1Cl [Example 1-24, 6-[(E)-1-(3-Chloro-4-{[3-(diethylamino)propyl]sulfanyl}phenyl)-2-cyclopentylethenyl]-3-methylpyridin-2(1H)-one]
6 | 0.01 to 0.5 µM | CC(C)(C)c1ccc(/C(=C\[C@H]2CCC(=O)N2)c2ccc(Cc3ccccc3)c(=O)[nH]2)cc1 [Example 4-205, 3-Benzyl-6-{(E)-1-(4-tert-butylphenyl)-2-[(2R)-5-oxopyrrolidin-2-yl]ethenyl}pyridin-2(1H)-one]
7 | 0.01 to 0.5 µM | CC(C)(C)c1ccc(/C(=C\[C@H]2CCC(=O)N2)c2ccc(C3CCCC3)c(=O)[nH]2)cc1 [Example 4-194, 6-{(E)-1-(4-tert-Butylphenyl)-2-[(2R)-5-oxopyrrolidin-2-yl]ethenyl}-3-cyclopentylpyridin-2(1H)-one]
8 | 0.01 to 0.5 µM | Cc1ccc(/C(=C/CC2CCCC2)c2ccc(S(=O)(=O)C3CC3)cc2)[nH]c1=O [Example 1-37, 6-{(1E)-3-Cyclopentyl-1-[4-(cyclopropylsulfonyl)phenyl]prop-1-en-1-yl}-3-methylpyridin-2(1H)-one]
9 | 0.01 to 0.5 µM | O=C1CC[C@H](/C=C(\c2ccc(C(F)(F)F)cc2)c2ccc(-c3cn[nH]c3)c(=O)[nH]2)N1 [Example 4-360, 6-{(E)-2-[(2R)-5-Oxopyrrolidin-2-yl]-1-[4-(trifluoromethyl)phenyl]ethenyl}-3-(1H-pyrazol-4-yl)pyridin-2(1H)-one]
10 | 0.01 to 0.5 µM | CSc1ccc(/C(=C\[C@H]2CCC(O)C2)c2ccc(C3CC3)c(=O)[nH]2)cc1Cl (stereo partly drawn) [Example 1-85, 6-{(E)-1-[3-Chloro-4-(methylsulfanyl)phenyl]-2-[(1S)-3-hydroxycyclopentyl]ethenyl}-3-cyclopropylpyridin-2(1H)-one]
11 | 0.5 to 3 µM | O=C1CC[C@H](/C=C(\c2ccc3ccccc3c2)c2ccc(Cl)c(=O)[nH]2)N1 [Example 4-149, 3-Chloro-6-{(E)-1-(naphthalen-2-yl)-2-[(2R)-5-oxopyrrolidin-2-yl]ethenyl}pyridin-2(1H)-one]
12 | 0.5 to 3 µM | O=C1CC[C@H](/C=C(\c2ccc(C3CC3)cc2)c2ccc(Cl)c(=O)[nH]2)N1 [Example 4-88, 3-Chloro-6-{(E)-1-(4-cyclopropylphenyl)-2-[(2R)-5-oxopyrrolidin-2-yl]ethenyl}pyridin-2(1H)-one]
13 | 0.01 to 0.5 µM | CC(C)(C)c1ccc(/C(=C\[C@H]2CCC(=O)N2)c2ccc(OC(F)F)c(=O)[nH]2)cc1 [Example 4-165, 6-{(E)-1-(4-tert-Butylphenyl)-2-[(2R)-5-oxopyrrolidin-2-yl]ethenyl}-3-(difluoromethoxy)pyridin-2(1H)-one]
